Measured values: patent US12667101B2, “Picolinamide derivatives useful as agricultural fungicides” (GLOBACHEM NV, priority 2019, dated 2026)
Converted amounts (≈) assume the structure as drawn.

System: Zymoseptoria tritici
Assay: Fungicidal activity screen in amended agar, 96 well plates
Assay type: cell-based
Conditions: 168 h, 1% potato dextrose agar amended to 20, 2, 0.2 and 0.02 ppm, 10,000 spores/mL, 18° C., assessed after 7 days, read-out: Zymoseptoria (EC50 ranking of fungal growth vs DMSO controls)
Protocol: Compounds were screened in 96 well plates with 10 compounds per plate. Each compound was screened using agar amended to 20, 2, 0.2 and 0.02 ppm of the test material. Proline at 50 and 10 ppm and 0.2% DMSO were used respectively as positive and negative controls. Each test concentration and standard were tested twice on a plate.
Compounds were screened against Zymoseptoria tritici. The agar used in the test was 1% potato dextrose agar. Sufficient spores were added to the appropriate agar to give 10,000 spores/mL agar.
A ×10 stock solution in 2% DMSO was produced for each dose i.e. 200, 20, 2 and 0.2 ppm, and 10 μl of this added to the appropriate wells on the plate. An equivalent amount of 2% DMSO and Proline stock at 500 and 100 ppm were added for the controls. To each well, 90 μl of the appropriate agar spore suspension was added to give the final well concentrations outlined in the first paragraph.
Plates were incubated at room temperature (18° C.) and assessed after 7 days.
The amount of fungal growth in each well was compared to the DMSO controls and scored according to the following key: • A—EC50<2 ppm • B—2≤EC50<20 • C—EC50≥20 • D—No activity detected at the highest dose tested • NT—Not tested

**Q.** `CCCCCc1cc(Oc2ccc(F)cc2)nc2ccc(NC(=O)c3nccc(OC)c3O)cc12` [Example 21, N-(2-(4-fluorophenoxy)-4-pentylquinolin-6-yl)-3-hydroxy-4-methoxypicolinamide] was tested. Which EC50 did it give?
**A.** Its EC50 is at least 20 µg/mL.

**Q.** How did the EC50 turn out when `COc1ccccc1Oc1ccc2cc(NC(=O)c3nccc(OC)c3O)ccc2n1` [Example 22, 3-hydroxy-4-methoxy-N-(2-(2-methoxyphenoxy)quinolin-6-yl)picolinamide] was run?
**A.** Its EC50 is at least 20 µg/mL.

**Q.** With `COc1ccnc(C(=O)Nc2ccc3nc(N(C)c4ccccc4Cl)ccc3c2)c1O` [Example 23, N-(2((2-chlorophenyl)(methyl)amino)quinolin-6-yl)-3-hydroxy-4-methoxypicolinamide] as the molecule, how does the EC50 read?
**A.** The EC50 was under 2 µg/mL.

**Q.** For `COc1ccnc(C(=O)Nc2ccc3nc(N(C)c4cccnc4Cl)ccc3c2)c1O` [Example 25, N-(2-((2-chloropyridin-3-yl)(methyl)amino)quinolin-6-yl)-3-hydroxy-4-methoxypicolinamide], which EC50 is on record?
**A.** Its EC50 is 2 to 20 µg/mL (≈ 4.59 to 45.9 µM).

**Q.** `COc1ccnc(C(=O)Nc2ccc3nc(Sc4ccccc4Cl)ccc3c2)c1O` [Example 26, N-(2-((2-chlorophenyl)thio)quinolin-6-yl)-3-hydroxy-4-methoxypicolinamide] was tested. Which EC50 did it give?
**A.** Its EC50 is under 2 µg/mL.

**Q.** With `COc1ccnc(C(=O)Nc2ccc3nc(Oc4cccnc4Cl)ccc3c2)c1O` [Example 27, N-(2-((2-chloropyridin-3-yl)oxy)quinolin-6-yl)-3-hydroxy-4-methoxypicolinamide] as the molecule, how does the EC50 read?
**A.** Its EC50 is at least 20 µg/mL.

**Q.** With `COc1ccnc(C(=O)Nc2ccc3nc(Sc4cccnc4Cl)ccc3c2)c1O` [Example 28, N-(2-((2-chloropyridin-3-yl)thio)quinolin-6-yl)-3-hydroxy-4-methoxypicolinamide] as the molecule, how does the EC50 read?
**A.** Its EC50 is at least 20 µg/mL.

**Q.** With `COc1ccnc(C(=O)Nc2ccc3nc(Sc4ccc(F)cc4)ccc3c2)c1OC(C)=O` [Example 29, 2-((2-((4-fluorophenyl)thio)quinolin-6-yl)carbamoyl)-4-methoxypyridin-3-yl acetate] as the molecule, how does the EC50 read?
**A.** The EC50 was at least 20 µg/mL.

**Q.** With `COc1ccnc(C(=O)Nc2ccc3nc(Oc4ccccc4Cl)ccc3c2)c1OC(C)=O` [Example 30, 2-((2-(2-chlorophenoxy)quinolin-6-yl)carbamoyl)-4-methoxypyridin-3-yl acetate] as the molecule, how does the EC50 read?
**A.** The EC50 was 2 to 20 µg/mL.

**Q.** Which EC50 does the source give for `CCCCCc1cc(Oc2ccc(F)cc2)nc2ccc(NC(=O)c3nccc(OC)c3OC(C)=O)cc12` [Example 31, 2-((2-(4-fluorophenoxy)-4-pentylquinolin-6-yl)carbamoyl)-4-methoxypyridin-3-yl acetate] here?
**A.** The EC50 was at least 20 µg/mL.

**Q.** Which EC50 does the source give for `COc1ccnc(C(=O)Nc2ccc3nc(N(C)c4ccccc4Cl)ccc3c2)c1OC(C)=O` [Example 32, 2-((2-((2-chlorophenyl)(methyl)amino)quinolin-6-yl)carbamoyl)-4-methoxypyridin-3-yl acetate] here?
**A.** The EC50 was under 2 µg/mL.

**Q.** With `COc1ccnc(C(=O)Nc2ccc3nc(Sc4ccccc4Cl)ccc3c2)c1OC(C)=O` [Example 33, 2-((2-((2-chlorophenyl)thio)quinolin-6-yl)carbamoyl)-4-methoxypyridin-3-yl acetate] as the molecule, how does the EC50 read?
**A.** The EC50 was at least 20 µg/mL.

**Q.** How did the EC50 turn out when `COc1ccnc(C(=O)Nc2ccc3nc(N(C)c4cccnc4Cl)ccc3c2)c1OC(C)=O` [Example 34, 2-((2-((2-chloropyridin-3-yl)(methyl)amino)quinolin-6-yl)carbamoyl)-4-methoxypyridin-3-yl acetate] was run?
**A.** Its EC50 is at least 20 µg/mL.

**Q.** How did the EC50 turn out when `COc1ccnc(C(=O)Nc2ccc3nc(Sc4cccnc4Cl)ccc3c2)c1OC(C)=O` [Example 35, 2-((2-((2-chloropyridin-3-yl)thio)quinolin-6-yl)carbamoyl)-4-methoxypyridin-3-yl acetate] was run?
**A.** Its EC50 is 2 to 20 µg/mL.

**Q.** For `COc1ccnc(C(=O)Nc2ccc3nc(Oc4cccnc4Cl)ccc3c2)c1OC(C)=O` [Example 36, 2-((2-((2-chloropyridin-3-yl)oxy)quinolin-6-yl)carbamoyl)-4-methoxypyridin-3-yl acetate], which EC50 is on record?
**A.** Its EC50 is at least 20 µg/mL.

**Q.** `COc1ccnc2c(=O)n(-c3ccc4nc(Sc5ccc(F)cc5)ccc4c3)c(=S)oc12` [Example 37, 3-(2-((4-fluorophenyl)thio)quinolin-6-yl)-8-methoxy-2-thioxo-2,3-dihydro-4H-pyrido[2,3-e][1,3]oxazin-4-one] was tested. Which EC50 did it give?
**A.** Its EC50 is under 2 µg/mL.

**Q.** With `CCC(C)Oc1ccc2cc(-n3c(=S)oc4c(OC)ccnc4c3=O)ccc2n1` (centres unmarked) [Example 38, 3-(2-(sec-butoxy)quinolin-6-yl)-8-methoxy-2-thioxo-2,3-dihydro-4H-pyrido[2,3-e][1,3]oxazin-4-one] as the molecule, how does the EC50 read?
**A.** Its EC50 is 2 to 20 µg/mL (≈ 4.88 to 48.8 µM).

**Q.** With `COc1ccnc2c(=O)n(-c3ccc4nc(OC(C)C(C)C)ccc4c3)c(=S)oc12` (centres unmarked) [Example 39, 8-methoxy-3-(2-((3-methylbutan-2-yl)oxy)quinolin-6-yl)-2-thioxo-2,3-dihydro-4H-pyrido[2,3-e][1,3]oxazin-4-one] as the molecule, how does the EC50 read?
**A.** The EC50 was at least 20 µg/mL.

**Q.** `COc1ccnc2c(=O)n(-c3ccc4nc(Oc5ccccc5Cl)ccc4c3)c(=S)oc12` [Example 40, 3-(2-(2-chlorophenoxy)quinolin-6-yl)-8-methoxy-2-thioxo-2,3-dihydro-4H-pyrido[2,3-e][1,3]oxazin-4-one] was tested. Which EC50 did it give?
**A.** Its EC50 is under 2 µg/mL.

**Q.** Which EC50 does the source give for `COc1ccccc1Oc1ccc2cc(-n3c(=S)oc4c(OC)ccnc4c3=O)ccc2n1` [Example 41, 8-methoxy-3-(2-(2-methoxyphenoxy)quinolin-6-yl)-2-thioxo-2,3-dihydro-4H-pyrido[2,3-e][1,3]oxazin-4-one] here?
**A.** Its EC50 is at least 20 µg/mL.

**Q.** For `COc1ccnc2c(=O)n(-c3ccc4nc(N(C)c5ccccc5Cl)ccc4c3)c(=S)oc12` [Example 42, 3-(2-((2-chlorophenyl)(methyl)amino)quinolin-6-yl)-8-methoxy-2-thioxo-2,3-dihydro-4H-pyrido[2,3-e][1,3]oxazin-4-one], which EC50 is on record?
**A.** Its EC50 is 2 to 20 µg/mL (≈ 4.19 to 41.9 µM).

**Q.** How did the EC50 turn out when `COc1ccnc2c(=O)n(-c3ccc4nc(Sc5ccccc5Cl)ccc4c3)c(=S)oc12` [Example 43, 3-(2-((2-chlorophenyl)thio)quinolin-6-yl)-8-methoxy-2-thioxo-2,3-dihydro-4H-pyrido[2,3-e][1,3]oxazin-4-one] was run?
**A.** Its EC50 is at least 20 µg/mL.

**Q.** Which EC50 does the source give for `COc1ccnc2c(=O)n(-c3ccc4nc(Oc5cccnc5Cl)ccc4c3)c(=S)oc12` [Example 44, 3-(2-((2-chloropyridin-3-yl)oxy)quinolin-6-yl)-8-methoxy-2-thioxo-2,3-dihydro-4H-pyrido[2,3-e][1,3]oxazin-4-one] here?
**A.** The EC50 was at least 20 µg/mL.

**Q.** How did the EC50 turn out when `COc1ccnc2c(=O)n(-c3ccc4nc(Sc5cccnc5Cl)ccc4c3)c(=S)oc12` [Example 45, 3-(2-((2-chloropyridin-3-yl)thio)quinolin-6-yl)-8-methoxy-2-thioxo-2,3-dihydro-4H-pyrido[2,3-e][1,3]oxazin-4-one] was run?
**A.** Its EC50 is at least 20 µg/mL.

**Q.** `COc1ccnc2c(=O)n(-c3ccc4nc(N(C)c5cccnc5Cl)ccc4c3)c(=S)oc12` [Example 46, 3-(2-((2-chloropyridin-3-yl)(methyl)amino)quinolin-6-yl)-8-methoxy-2-thioxo-2,3-dihydro-4H-pyrido[2,3-e][1,3]oxazin-4-one] was tested. Which EC50 did it give?
**A.** Its EC50 is at least 20 µg/mL.

**Q.** How did the EC50 turn out when `COc1ccnc(C(=O)Nc2ccc3nc(OC(C)C)ccc3c2)c1OC(C)=O` [Example 47, 2-((2-isopropoxyquinolin-6-yl)carbamoyl)-4-methoxypyridin-3-yl acetate] was run?
**A.** The EC50 was under 2 µg/mL.
